Assay [1] has as its system isolated cockroach (Leucophaea maderae) hindgut. Put plainly: Cockroach myotropic bioassay (isolated hindgut). The format is cell-based. How it is done:
Leucophaea maderae cockroaches were taken from stock colonies maintained at 27° C. and fed dry dog food ad lib. Cockroach hindguts, free of central nervous system (CNS) tissue, were dissected, immersed in saline, and prepared for recording of myogenic activity as previously described (Holman et al., 1991, ibid). Threshold concentrations were determined for each analogue by adding a known quantity of peptide (dissolved in 0.5 ml bioassay saline) to the bioassay chamber containing the hindgut and observing the response on a Gould 2200S oscillograph recorder. The quantity of the peptide analogues was calculated from the values obtained for Phe and/or Leu in the amino acid analysis. The threshold concentration was defined as the minimum concentration of peptide in the chamber required to evoke an observable change in the frequency (50%) or amplitude of contractions (5%) within 1 min and sustained for 3 min. Threshold concentrations were obtained from five cockroach hindguts on 5 consecutive days for each peptide. Quantitative data for dose-response plots were obtained as previously described (Holman et al., 1991, ibid).

Assay [2] deals with virgin females of Heliothis virescens. Put plainly: Pheromonotropic assay (topical application). The format is in vivo. The settings on record: for dose approaching 100% maximal response, topical application: 15 minutes following topical application. How it is done:
The amphiphilic carboranyl analog Cbe--Thr--Pro--Arg--Leu--NH2 was dissolved in water and solutions at concentrations of 5, 10, 25, 60, and 200 pmol/μl were prepared. The cuticular scales along the lateral side of the abdomen were removed with a 1 ml plastic pipet tip attached to house vacuum with a rubber hose. A low vacuum was applied to the apparatus and the pipet tip was gently passed over the cuticle until the scales were drawn by suction. After the scales were removed, 1 μl of peptide solution was applied to the surface of the cuticle and smoothed evenly over the prepared surface. […]
Pupae of Heliothis virescens were obtained from a laboratory colony maintained at the Insect Attractants Behavior and Basic Biology Research Laboratory, USDA-ARS, Gainesville, Fla. The pupae were separated by sex and the females were held in 4-1 cages. Cages were inspected daily for newly eclosed adults which were transferred to new cages and provided with cotton wicks soaked with a 5% sucrose solution. The insects were held at 25°[…] C. and 65%±3% relative humidity with a 12:12 (L:D) photoperiod. Virgin females were used for bioassays 2 and 3 days after eclosion during the 7th-8th hour of the photophase when little or no pheromone is present in the gland (Teal et al., 1993, Can. Entomol., 153:355-366). The cuticular scales were removed from the lateral side of the abdomen using a plastic pipet tip attached to house vacuum using a rubber hose. A low vacuum was applied and the pipet tip was passed gently over the cuticle until the scales were drawn off by suction. Insects were returned to the incubator for 24 h after the scales were removed for most experiments. However, insects were not given a recovery period in studies in which peptides were applied in DMSO (see below).
In initial studies we used dimethyl sulfoxide (DMSO) as a carrier to deliver Hez--PBAN or [6--Pha--Ala^0 ]Lom--MT--II for topical applications. […] We also assessed different carrier solvents for their ability to deliver these two peptides. Peptides were dissolved at a concentration of 500 pmol/μl in: DMSO, water, or 80% acetonitrile:20% water. Solutions were applied to the descaled abdomen in 1 μl of solvent as above. The insects were allowed to incubate for 1 h prior to excision and extraction of the pheromone gland. Extracts were analyzed for the amount of pheromone as above.
The use of water as a carrier for [6--Pha--Ala^0 ]Lom--MT--II was also assessed in dose response and temporal activity studies. For dose response studies [6--Pha--Ala^0 ]Lom--MT--II was dissolved in water at concentrations of 5, 10, 25, 50, 75, 100, 250, 500, 750 and 1000 pmol/μl. Insects were incubated for 60 min after application of 1 μl of solution to the descaled abdomen. In temporal activity studies a 100 pmol/μl dose was selected. For these experiments insects were incubated for periods of 15, 30, 60, 120, or 180 min after application of 1 μl of solution to the descaled abdomen. The ability of the parent peptide, Lom--MT--II, to stimulate pheromone production when applied topically in water was assessed by applying doses of 50, 100, 250 and 500 pmol to the abdomen. Control treatments for this experiment included insects treated with only water and females treated by topical application of 100 pmol of [6--Pha--Ala^0 ]Lom--MT--II. After incubation the sex pheromone glands were excised, extracted and analyzed for the amount of pheromone.

In another assay the test system is fleshfly larvae. Put plainly: Acceleration of pupariation after injection into fleshfly larvae. The format is in vivo, Sarcophaga bullata. The settings on record: injected into fleshfly larvae.
Setting [3] is: isolated hindgut, FIG. 2, listed as carboranyl pseudotetrapeptide.

Entries after “also recorded” stand apart in the source; their conditions may differ.

With Cbe--Thr--Pro--Arg--Leu--NH2, the “potency relative to the 8-mer LPK” value in assay [1] (hindgut threshold concentration) is 10 X. Further, the “reversibility of myostimulatory response by saline rinse” value is listed as “could not be reversed even following repeated saline rinses; also recorded: cannot be reversed even following repeated saline rinses” in assay [1] (isolated hindgut, FIG. 2, listed as carboranyl analog) and “cannot be reversed by one or more saline rinses” in assay [1] (setting [3]). For the same substance, in assay [1] (setting [3]), the “period over which myostimulatory activity subsides after rinse” value is “about 20 minutes”. Further, in assay [1] (minimum concentration evoking observable change in frequency (50%) or amplitude (5%) of contractions), the “Threshold Concentration, myostimulation of the isolated cockroach hindgut” value is 70 pM. Also, in assay [2] (1 μl aqueous solution on lateral abdominal surface, FIG. 4), the “ED50 (EC50), pheromone production after topical application” value turned out to be 25 pmoles/female. The “ED50, pheromone production via topical application” value in assay [2] (H. virescens, 1 μl aqueous solution) came out at 25 pmol. In addition, in assay [2] (aqueous solution), the “time after topical application at which pheromone production is elicited” value is “about 15 minutes”. Further, the “dose approaching 100% maximal response, topical application” value in assay [2] (aqueous solution, listed as carboranyl analog) is 60 pmoles/female; in assay [2] (aqueous solution, listed as carboranyl peptide), “about 60 pmoles/female”. In addition, the “Maximal Response via topical application (dose)” value in assay [2] (relative to 5 pmoles PBAN via injection) worked out at 60 pmol. Further, the “concentration giving maximal pheromone stimulation, topical application” value in assay [2] (topically applied) is on record as 60 picomoles/insect. The concentration accelerating pupariation in the assay with fleshfly larvae is reported as no more than 0.25 picomoles/insect.

These data come from patent publication US5795857A, “Mimetic insect pyrokinin analogs for insect control” (The United States of America as represented by the …, priority 1996, dated 1998).
